Literature values in EP4088834A1, “INORGANIC COATED SAND” (Kao Corporation, priority 2020, dated 2021).

Details: 25°C

## [O]=[Ca] [calcium oxide]
  solubility in water: 1190 µg/mL
